Reference: US20220273684A1, “Systems and Methods to Identify Pancreatic Ductal Adenocarcinoma and Uses Thereof” (The Board of Trustees of the Leland Stanford Junior …, priority 2021, published 2022)

Legend:
[1] = test system: acinar cell-derived PDAC cell lines; assay: Cell viability assay (MTT) after incubation with drug, acinar cell-derived PDAC cell lines; assay type: cell-based
Procedure: (§1) FIGS. 4A-4E illustrate exemplary data that acinar and ductal cell-derived pancreatic cancer cells have different sensitivities to multiple therapeutic agents in accordance with various embodiments of the invention. FIG. 4A illustrates an exemplary method to identify agents to treat specific types of tumors and/or treating an individual based on tumor signature. FIG. 4B illustrates a schematic of the experimental setup. FIG. 4C illustrates cell viability after a 24 hour incubation with 25 μM of GSK-3β inhibitor, TDZD-8. FIG. 4D illustrates cell viability after a 48 hour incubation with 1 mM of glucose analog, 2-DG. FIG. 4E illustrates cell viability after a 72 hour incubation with 100 μM of AKT kinase inhibitor, Capivasertib.
Turning to FIGS. 4A-4E, various embodiments are capable of identifying agents to treat specific types of tumors and/or treating an individual based on tumor signature. Specifically, FIG. 4A illustrates a method 400 to test one or more treatments against tumor-derived cells. At 402, many embodiments obtain one or more cultures of cells. […]
Turning back to FIG. 4A, after treatment, many embodiments assess cellular growth at 408. Cellular growth can be assessed manually or automatedly. […]

[2] = test system: ductal cell-derived PDAC cell lines; assay: Cell viability assay (MTT) after incubation with drug, ductal cell-derived PDAC cell lines; assay type: cell-based; conditions: 72 hour incubation with 100 μM Capivasertib; ductal cell-derived relative to acinar cell-derived PDAC lines (FIG. 4E)
Procedure: as §1, with “Capivasertib. Turning to FIGS. 4A-4E, various embodiments are capable of identifying agents to treat specific types of tumors and/or treating an individual based on tumor signature. Specifically, FIG. 4A illustrates a method 400 to test one or more treatments against tumor-derived cells. At 402, many embodiments obtain one or more cultures of cells. In various embodiments, the derived tumor cells are obtained as an admixture of cells, while some embodiments obtain cells as a single type (e.g., healthy, acinar cell-derived, or ductal cell-derived). […] Cellular growth can be assessed manually or automatedly. […]” for “Capivasertib.”

SMILES: OCC1OC(O)CC(O)C1O (stereo not drawn) [2-DG]
- cell viability ([1]; 48 hour incubation with 1 mM 2-DG, acinar cell-derived relative to ductal cell-derived PDAC lines (FIG. 4D)): increased viability

SMILES: NC1(C(=O)N[C@@H](CCO)c2ccc(Cl)cc2)CCN(c2ncnc3[nH]ccc23)CC1 [Capivasertib]
- cell viability [2]: increased viability

SMILES: Cn1sc(=O)n(Cc2ccccc2)c1=O [TDZD-8]
- cell viability ([1]; 24 hour incubation with 25 μM TDZD-8, acinar cell-derived relative to ductal cell-derived PDAC lines (FIG. 4C)): increased viability
